Data: patent US8841233B2, “Herbicidal compositions comprising 4-amino-3-chloro-5-fluoro-6-(4-chloro-2-fluoro-3-methoxyphenyl) pyridine-2-carboxylic acid or a derivative thereof and 4-hydroxyphenyl-pyruvate dioxygenase (HPPD) inhibitors” (Dow Agrosciences LLC, priority 2012, dated 2014)

Legend:
Test in all cases: Pre-emergence soil-applied weed control, greenhouse (Example III)
[1] = system: IPOHE; assay type: in vivo, Ipomoea hederacea (L.) Jacq.; settings: 35 gai/ha
Excerpt: (§1) Evaluation of Pre-emergence Soil-Applied Herbicidal Mixtures for Weed Control
(§2) Seeds or nutlets of the desired test plant species were planted in a soil matrix prepared by mixing a loam soil (32 percent silt, 23 percent clay, and 45 percent sand, with a pH of about 6.5 and an organic matter content of about 1.9 percent) and calcareous grit in an 80 to 20 ratio. The soil matrix was contained in plastic pots with a volume of 1 quart and a surface area of 83.6 square centimeters (cm^2).
(§3) Treatments consisted of the benzyl ester of 4-amino-3-chloro-5-fluoro-6-(4-chloro-2-fluoro-3-methoxy-phenyl)pyridine-2-carboxylic acid (compound A) formulated as an SC (suspension concentrate) and various herbicidal components alone and in combination. Forms of compound A were applied on an acid equivalent basis.
(§4) Other herbicidal components were applied on an acid equivalent or active ingredient basis and included the 4-hydroxyphenyl pyruvate dioxygenase (HPPD)-inhibiting herbicide, isoxaflutole, formulated as Balance Pro®.
(§5) Treatment requirements were calculated based upon the rates being tested, the concentration of active ingredient or acid equivalent in the formulation, and a 12 mL application volume at a rate of 187 L/ha.
(§6) For treatments comprised of formulated compounds, measured amounts of compounds were placed individually in 25 mL glass vials and diluted in a volume of 1.25% (v/v) Agri-Dex® crop oil concentrate (COC) to obtain 12× stock solutions. […] Application solutions were prepared by adding an appropriate amount of each stock solution (e.g., 1 mL) and diluted to the appropriate final concentrations with the addition of 10 mL of an aqueous mixture of 1.25% (v/v) COC so that the final spray solutions contained 1.25% (v/v) COC.
(§7) All stock solutions and applications solutions were visually inspected for compound compatibility prior to application. Spray solutions were applied to the soil with an overhead Mandel track sprayer equipped with a 8002E nozzles calibrated to deliver 187 L/ha over an application area of 0.503 m^2 at a spray height of 18 inches (46 cm) above average pot height. Control pots were sprayed in the same manner with the solvent blank.
(§8) The treated and control pots were placed in a greenhouse and top watered as needed. When required to ensure good germination and healthy plants, a fungicide treatment and/or other chemical or physical treatment was applied. […] After approximately 4 weeks, the condition of the test plants as compared with that of the untreated plants was determined visually and scored on a scale of 0 to 100 percent where 0 corresponds to no injury or growth inhibition and 100 corresponds to complete kill. […]

[2] = system: XANST; assay type: in vivo, Xanthium strumarium L.; settings: 35 gai/ha
Excerpt: as §1, §2, §3, §4, §5, §6, §7, §8

[3] = system: SETVI; assay type: in vivo, Setaria viridis (L.) Beauv.
Excerpt: as §1, §2, §3, §4, §5, §6, §7, §8

CS(=O)(=O)c1cc(C(F)(F)F)ccc1C(=O)c1cnoc1C1CC1 [Isoxaflutole, (5-cyclopropyl-4-isoxazolyl)[2-(methylsulfonyl)-4-(trifluoromethyl)phenyl]methanone, reference compound]
Visual Weed Control (%) - 32 DAA IPOHE Obs [1]: 43%
Visual Weed Control (%) - 32 DAA XANST Obs [2]: 75%
Visual Weed Control (%) - 32 DAA SETVI Obs ([3]; 35 gai/ha): 50%
Visual Weed Control (%) - 32 DAA SETVI Obs ([3]; 70 gai/ha): 93%
